Data on 16 compounds can be found in patent US20200181089A1, “4-ANILINO-QUINOLINE COMPOUNDS AS ANTI-CANCER AGENTS” (INSERM (INSTITUT NATIONAL DE LA SANTÉ ET DE LA RECHERCHE …, priority 2016, published 2020).

Holding throughout (format): cell-based
Series [1] deals with normal human melanocyte. Nature of the series: Melanocyte viability assay (trypan blue exclusion). To be noted: 96 h. The method, then:
(§1) Cell viability effects were evaluated by trypan blue exclusion assay. Briefly, cells were seeded into 12-well plate and grown in media supplemented with indicated compound at 10 μM for 96 h. Cells were washed with PBS and detached by trypsinization, collected and colored by trypan blue. Dead and living cells were counted and cell viability was calculated as follow: Viability (%)=100−[(dead cell number/total cells)*100].

Series [2] relates to normal human fibroblast. In words: Fibroblast viability assay (trypan blue exclusion). To be noted: 96 h. Here is the method:
as §1

Series [3] relates to A375 cells. Nature of the series: A375 cell proliferation assay (trypan blue exclusion). As to conditions: Homo sapiens, A-375, treated/untreated cell number; for activity at 1 µM: A375, 1 μM; for activity at 10 µM: A375, 10 μM. The method, then: Cells were counted using a Malassez chamber. The average and standard deviation were calculated from triplicate experiments. Antiproliferative effects were evaluated by trypan blue exclusion assay. Briefly, cells were seeded into 12-well plate and grown in media supplemented with indicated compound at 1 or 10 μM for 48 h or 96 h. Cells were washed with PBS and detached by trypsinization, collected and colored by trypan blue. Dead and living cells were counted and proliferation was calculated as follow: Proliferation (%)=[(treated cell number/untreated cells number)*100].

Where [4] appears, read: 48 h, read-out: Proliferation (%) At 1 μM - 48 H.
[5] abbreviates: 96 h, read-out: Proliferation (%) At 1 μM - 96 H.
[6] abbreviates: 48 h, read-out: Proliferation (%) At 10 μM - 48 H.
[7] abbreviates: 96 h, read-out: Proliferation (%) At 10 μM - 96 H.

Like-named read-outs stand apart in the source and are kept apart here.

As to `FC(F)Oc1ccc(Nc2ccnc3cc(Cl)ccc23)cc1` [Compound 34, 7-chloro-N-(4-(difluoromethoxy)phenyl)quinolin-4-amine], the “Viability (%) at 10 μM Melanocyte” value in series [1] came out at 98.7%. In series [2], the “Viability (%) at 10 μM Fibroblast” value worked out at 98.3%. The activity at 1 µM in series [3] (setting [4]) is 96%; in series [3] (setting [5]) it was 98.6%. The activity at 10 µM in series [3] (setting [6]) was determined as 77.6%; in series [3] (setting [7]), 37.9%.

Regarding `COCCOc1cc(Nc2ccnc3cc(Cl)ccc23)ccc1OC` [Compound 35, 7-chloro-N-(4-methoxy-3-(2-methoxyethoxy)phenyl)quinolin-4-amine], the “Viability (%) at 10 μM Melanocyte” value in series [1] came out at 99.1%. Also, in series [2], the “Viability (%) at 10 μM Fibroblast” value turned out to be 99.5%. Also, the figures for the activity at 1 µM in series [3] (setting [4]) and in series [3] (setting [5]) were 104% and 85.3%, respectively. Also, the activity at 10 µM worked out at 84.7% in series [3] (setting [6]) and 79.9% in series [3] (setting [7]).

Take `COc1ccc(Nc2ccnc3ccc(Cl)cc23)c(OC)c1` [Compound 37, 6-chloro-N-(2,4-dimethoxyphenyl)quinolin-4-amine]: in series [1], the “Viability (%) at 10 μM Melanocyte” value is recorded as 98.7%. Also, the “Viability (%) at 10 μM Fibroblast” value in series [2] is listed as 94.6%. In addition, the activity at 1 µM is 84% in series [3] (setting [4]) and 87.4% in series [3] (setting [5]). Also, the values for the activity at 10 µM in series [3] (setting [6]) and in series [3] (setting [7]) were 80.5% and 53%, respectively.

On to `Oc1ccc(Nc2ccnc3cc(Cl)ccc23)cc1` [Compound 7, 4-((4-hydroxyphenyl)amino)-7-chloroquinolinium chloride], for which the “Viability (%) at 10 μM Melanocyte” value in series [1] was found to be 99.1%. Besides, in series [2], the “Viability (%) at 10 μM Fibroblast” value is 97.7%. Further, the activity at 1 µM in series [3] (setting [4]) worked out at 84.6%; in series [3] (setting [5]), 91.1%. Also, the activity at 10 µM in series [3] (setting [6]) turned out to be 95.2%; in series [3] (setting [7]) it was 79.4%.

With `COc1cccc(Nc2ccc3c(Nc4cc(F)cc(F)c4)ccnc3c2)c1` [Compound 26, N^4-(3,5-difluorophenyl)-N^7-(3-methoxyphenyl)quinolin-4,7-diamine], the activity at 1 µM in series [3] (setting [4]) was found to be 54.9%; in series [3] (setting [5]) it was 9.9%. The activity at 10 µM in series [3] (setting [6]) came out at 0.4%; in series [3] (setting [7]), 0%.

As for `COc1cc(Nc2ccc(OC)c(OC)c2)c2ccc(Cl)cc2n1` [Compound 33, 7-chloro-N-(3,4-dimethoxyphenyl)-2-methoxyquinolin-4-amine], the “Viability (%) at 10 μM Melanocyte” value in series [1] came to 60.1%. For the same compound, the “Viability (%) at 10 μM Fibroblast” value in series [2] amounted to 97.7%. The activity at 1 µM in series [3] (setting [4]) is 106%; in series [3] (setting [5]), 97.2%. Also, the results for the activity at 10 µM in series [3] (setting [6]) and in series [3] (setting [7]) were 102% and 95.2%, respectively.

Take `Oc1ccc(Nc2ccc3c(Nc4cc(F)cc(F)c4)ccnc3c2)cc1Cl` [Compound 19, 2-chloro-4-((4-((3,5-difluorophenyl)amino)quinolin-7-yl)amino)phenol]: the activity at 1 µM in series [3] (setting [4]) was 74.7%; in series [3] (setting [5]) it was 74.9%. The activity at 10 µM was 0.4% in series [3] (setting [6]) and 0% in series [3] (setting [7]).

On to `COc1ccc(Nc2cc(OC)nc3cc(Cl)ccc23)cc1` [Compound 27, 7-chloro-2-methoxy-N-(4-methoxyphenyl)quinolin-4-amine], for which the “Viability (%) at 10 μM Melanocyte” value in series [1] stood at 76.9%. In series [2], the “Viability (%) at 10 μM Fibroblast” value amounted to 93.9%. Further, the results for the activity at 1 µM in series [3] (setting [4]) and in series [3] (setting [5]) were 98.7% and 85.6%, respectively. Also, the values for the activity at 10 µM in series [3] (setting [6]) and in series [3] (setting [7]) were 67.8% and 21.8%, respectively.

With `COc1ccc(Nc2cc(N3CCOCC3)nc3cc(Cl)ccc23)cc1OC` [Compound 28, 7-chloro-N-(3,4-dimethoxyphenyl)-2-morpholinoquinolin-4-amine], in series [1], the “Viability (%) at 10 μM Melanocyte” value came out at 99.1%. The “Viability (%) at 10 μM Fibroblast” value in series [2] is 95.7%. The values for the activity at 1 µM in series [3] (setting [4]) and in series [3] (setting [5]) were 98.4% and 87.8%, respectively. Also, the activity at 10 µM worked out at 92% in series [3] (setting [6]) and 82.8% in series [3] (setting [7]).

Regarding `COc1ccc(Nc2ccnc3cc(Cl)ccc23)c(OC)c1` [Compound 39, 7-chloro-N-(2,4-dimethoxyphenyl)quinolin-4-amine], in series [1], the “Viability (%) at 10 μM Melanocyte” value was found to be 99.5%. Moreover, the “Viability (%) at 10 μM Fibroblast” value in series [2] came out at 100.0%. Besides, the activity at 1 µM in series [3] (setting [4]) was found to be 88.3%; in series [3] (setting [5]) it was 34.3%. For the same compound, the activity at 10 µM in series [3] (setting [6]) was 18.1%; in series [3] (setting [7]), 13.6%.

On to `COc1ccc(Nc2cc(N3CCN(C)CC3)nc3cc(Cl)ccc23)cc1` [Compound 31, 7-chloro-N-(4-methoxyphenyl)-2-(4-methylpiperazin-1-yl)quinolin-4-amine], for which the “Viability (%) at 10 μM Melanocyte” value in series [1] worked out at 33.1%. In addition, in series [2], the “Viability (%) at 10 μM Fibroblast” value worked out at 29.6%. Also, the activity at 1 µM in series [3] (setting [4]) was 106%; in series [3] (setting [5]), 83.3%. Further, the activity at 10 µM turned out to be 37.6% in series [3] (setting [6]) and 3.39% in series [3] (setting [7]).

Consider `FC(F)(F)Oc1ccc(Nc2ccnc3ccc(Cl)cc23)cc1` [Compound 36, 6-chloro-N-(4-(trifluoromethoxy)phenyl)quinolin-4-amine], for which, in series [1], the “Viability (%) at 10 μM Melanocyte” value amounted to 73.4%. For the same compound, the “Viability (%) at 10 μM Fibroblast” value in series [2] came out at 92.1%. In addition, the figures for the activity at 1 µM in series [3] (setting [4]) and in series [3] (setting [5]) were 105% and 97.7%, respectively. The activity at 10 µM stood at 49.7% in series [3] (setting [6]) and 9.89% in series [3] (setting [7]).

In the case of `COc1ccc(Nc2cc(OCCN3CCOCC3)nc3cc(Cl)ccc23)cc1OC` [Compound 32, 7-chloro-N-(3,4-dimethoxyphenyl)-2-(2-morpholinoethoxy)quinolin-4-amine], the “Viability (%) at 10 μM Melanocyte” value in series [1] amounted to 98.6%. Further, in series [2], the “Viability (%) at 10 μM Fibroblast” value came to 99.4%. Moreover, the activity at 1 µM was 96% in series [3] (setting [4]) and 84.5% in series [3] (setting [5]). Also, the activity at 10 µM in series [3] (setting [6]) worked out at 100%; in series [3] (setting [7]), 82.2%.

Regarding `COc1ccc(Nc2cc(N3CCN(C)CC3)nc3cc(Cl)ccc23)cc1OC` [Compound 29, 7-chloro-N-(3,4-dimethoxyphenyl)-2-(4-methylpiperazin-1-yl)quinolin-4-amine], the “Viability (%) at 10 μM Melanocyte” value in series [1] worked out at 91.2%. Besides, the “Viability (%) at 10 μM Fibroblast” value in series [2] is 41.6%. Also, the activity at 1 µM in series [3] (setting [4]) stood at 89.6%; in series [3] (setting [5]), 87.6%. Besides, the activity at 10 µM came to 67.2% in series [3] (setting [6]) and 4.8% in series [3] (setting [7]).

Regarding `COc1ccc(Nc2cc(N3CCOCC3)nc3cc(Cl)ccc23)cc1` [Compound 30, 7-chloro-N-(4-methoxyphenyl)-2-morpholinoquinolin-4-amine], the “Viability (%) at 10 μM Melanocyte” value in series [1] was determined as 94.2%. Also, the “Viability (%) at 10 μM Fibroblast” value in series [2] is given as 96.4%. For the same compound, the results for the activity at 1 µM in series [3] (setting [4]) and in series [3] (setting [5]) were 88% and 73.2%, respectively. The activity at 10 µM in series [3] (setting [6]) is 87.2%; in series [3] (setting [7]), 37%.

As for `COc1ccc(Nc2ccnc3cc(Cl)ccc23)cc1OC` [Compound 38, 7-chloro-N-(3,4-dimethoxyphenyl)quinolin-4-amine], the “Viability (%) at 10 μM Melanocyte” value in series [1] is reported as 99.2%. In addition, the “Viability (%) at 10 μM Fibroblast” value in series [2] was determined as 93.3%. The activity at 1 µM in series [3] (setting [4]) stood at 90.8%; in series [3] (setting [5]), 46.9%. Besides, the activity at 10 µM in series [3] (setting [6]) amounted to 33.5%; in series [3] (setting [7]), 15.7%.
